{"source": "patent US20090186810A1", "about": "“POTASSIUM CHANNEL MODULATORS AND PLATELET PROCOAGULANT ACTIVITY” (priority 2006, published 2009)", "type_in_all_cases": "cell-based, human", "key": {"[1]": {"tested_on": "platelets, collagen plus thrombin induced release of ATP", "experiment": "Platelet release reaction (ATP bioluminescence)", "procedure": "(§1) Aggregation was measured at 37° C. in 450 μL samples of a platelet suspension of 2×10^8/mL using an automated model 400 Chronolog aggregometer (Chronolog Corporation, Chicago, USA). After stirring for 2 minutes at 300 rpm, CaCl2 (3 mmol/L) was added, 1 minute later followed by simultaneous addition of 10 μg/mL collagen and 4 nmol/L thrombin. The resulting aggregation was recorded for 5 minutes after which 50 μL ATP-reagent (Boehringer Mannheim ATP Bioluminescence Assay Kit HS II) was added to quantify the release reaction."}, "[2]": {"tested_on": "collagen and thrombin activated platelets", "experiment": "cells", "procedure": "(§2) Platelet isolation was performed as described.^10 Briefly, 10 milliliters (mL) blood was collected in 2 mL anticoagulant ACD (80 mmol/L trisodium citrate, 52 mmol/L citric acid and 180 mmol/L glucose). Platelet rich plasma was obtained by centrifuging whole blood for 15 minutes at 200 g. Platelets were spun down at 11,500× gravity for 2 minutes using a microfuge. The platelet pellet was resuspended and washed twice with 10 mmol/L HEPES, 137 mmol/L NaCl, 2.7 mmol/L KCl, 2 mmol/L MgCl2, 5 mmol/L glucose and 0.5 mg/mL BSA, adjusted at pH 6.6); before each centrifugation step, 100 μL ACD was added to each mL resuspended platelets. Finally, platelets were resuspended in HEPES buffer at pH 7.4. Platelet count was adjusted at 2×10^8 platelets/mL. For measurement of the intracellular Ca^2+ concentration ([Ca^2+]i), platelets were loaded with Fura-2 (3 μmol/L) during 45 minutes at 37° C., prior to isolation.\nPlatelet activation was performed at 37° C. at a concentration of 10^7 platelets/mL in a volume of 0.5 mL under continuous stirring in the presence of 3 mmol/L CaCl2. Platelet agonists used were thrombin (5 nmol/L) plus collagen (10 μg/mL) or ionomycin (1 μmol/L). The effect of different inhibitors was studied by pre-treatment of platelets with the various agents for 30 minutes before starting the activation procedure. For the effects of high extracellular [K^+], platelet suspensions were diluted 20-fold to a concentration of […] in a modified HEPES buffer, referred to as HEPES/KCl buffer (10 mmol/L HEPES, 19.7 mmol/L NaCl, 120 mmol/L KCl, 2 mmol/L MgCl2, 5 mmol/L glucose and 0.5 mg/mL BSA, pH 7.4), activated and assayed for thrombin generation as described before. In some experiments, HEPES buffer was used in which 120 mmol/L NaCl was replaced by 120 mmol/L choline chloride (10 mmol/L HEPES, 17 mmol/L NaCl, 120 mmol/L choline chloride, 2.7 mmol/L KCl, 2 mmol/L MgCl2, 5 mmol/L glucose and 0.5 mg/mL BSA, pH 7.4), referred to as HEPES/Choline buffer.\n(§3) Platelet procoagulant activity was assayed as described in more detail elsewhere.^9 Briefly, after activation of 10^7 platelets/mL with collagen (10 μg/mL) and thrombin (4 nmol/L) for 10 minutes, samples were taken and diluted to 10^6 platelets/mL in HEPES buffer containing 3 mmol/L CaCl2 and 0.5 mg/mL BSA. The samples were incubated with 0.2 nmol/L factor Xa and 2 nmol/L factor Va for 1 minute at 37° C. Thrombin formation was initiated by addition of 1 μmol/L prothrombin and arrested after 2 minutes by addition of 10 mmol/L EDTA. Thrombin was measured using the chromogenic substrate S2238.\nFIG. 2. illustrates the effect of potassium channel inhibitors on collagen plus thrombin induced platelet procoagulant activity. Platelets at 10^7 ml^−1 were preincubated with various inhibitors for 30 minutes followed by activation with collagen (10 μg/ml) plus thrombin (4 nmol/L) for 10 minutes. Samples from these incubations were diluted 10-fold in HEPES buffer containing 3 mmol/L CaCl2 and subsequently analyzed for prothrombinase activity (A) or percentage of annexin-positive cells (B) as described in the Materials and Methods section above. Valinomycin was added 5 minutes prior to activation of the platelets (to avoid long term effects of this ionophore). Black bars: absence of valinomycin; hatched bars: presence of valinomycin. […] Student's t-test was used to compare data in the presence and absence of valinomycin."}, "[3]": {"tested_on": "platelets, collagen plus thrombin induced aggregation", "experiment": "Platelet aggregation (Chronolog aggregometer)", "procedure": "as §1"}, "[4]": {"tested_on": "platelets, tetracaine-induced PS exposure", "experiment": "Tetracaine-induced prothrombinase activity"}, "[5]": {"tested_on": "collagen plus thrombin activated platelets", "experiment": "Measurement of [Ca2+]i of Fura-2-loaded platelets in suspension", "procedure": "as §2\nPlatelets (5×10^7/mL) were incubated with K^+ channel inhibitors for 5 minutes, followed by the addition of tirofiban (5 μg/mL) and Ca^2+ (3 mmol/L) and incubated for an additional 5 minutes under stirring conditions. Collagen (10 μg/mL) plus thrombin (5 nmol/L) were then added simultaneously. Changes in [Ca^2+]i of Fura-2-loaded platelets were measured under continuous stirring by dual excitation fluorometry in an SLM-Aminco 8100 spectrofluorimeter (SLM Instruments). Ratio values of fluorescence at 340 and 380 nm excitation, obtained 5 minutes after activation with collagen plus thrombin, were converted to levels of [Ca^2+]i as described.^14 Experiments were performed in triplicate at 37° C."}, "[6]": {"tested_on": "collagen plus thrombin activated platelets", "experiment": "Flow cytometry, binding of FITC-conjugated annexin A5 (PS exposure)", "procedure": "as §2\nPlatelet activation was performed at 37° C. at a concentration of 10^7 platelets/mL in a volume of 0.5 mL under continuous stirring in the presence of 3 mmol/L CaCl2. Platelet agonists used were thrombin (5 nmol/L) plus collagen (10 μg/mL) or ionomycin (1 μmol/L). […]\nSamples for flow cytometry were taken simultaneously with samples for the prothrombinase assay from the platelet incubations after 10 minutes activation. To measure PS exposure, samples were diluted 10-fold in HEPES buffer containing 3 mmol/L CaCl2 and incubated with FITC-conjugated Annexin A5 (final concentration 10 nmol/L) for 5 minutes and analyzed for light scatter and fluorescence by a Coulter Epics XL-MLC™ flow cytometer. Light scatter and fluorescence channels were set at logarithmic gain. Scatter parameters and fluorescence intensities were obtained from 10,000 platelets and analyzed off-line using WinMDI version 2.8 software (http://facs.scripps.edu/software.html). Ionomycin activated platelets were used to set a marker for fluorescence intensity of annexin-positive platelets to measure the percentage of annexin-positive platelets after the various incubation procedures. […]"}, "[7]": {"tested_on": "platelets, tetracaine-induced PS exposure", "experiment": "Tetracaine-induced binding of FITC-conjugated annexin A5"}, "[8]": {"tested_on": "platelets from a patient with Scott syndrome", "experiment": "Prothrombinase activity of platelets from a patient with Scott syndrome", "conditions": "valinomycin 3 μmol/L; collagen plus thrombin stimulation; FIG. 5", "procedure": "For experiments with platelets from a patient with Scott syndrome, freshly obtained citrated blood from the patient and a control was shipped by airmail and platelets were isolated and used for experiments immediately upon arrival (approx 24 hours after blood donation).\nas §3\nIn FIG. 5, the effect of valinomycin on collagen plus thrombin induced procoagulant activity of platelets from a patient with Scott syndrome is shown. Prothrombinase activities, expressed as nmol/L thrombin formed per minute, were determined after activation with collagen (10 μg/ml) plus thrombin (4 nmol/L) in the absence (black bars) and presence (hatched bars) of valinomycin (3 μmol/L). Data are mean values±1 S.D. (n=6)."}, "[9]": {"conditions": "collagen 10 μg/mL plus thrombin 4 nmol/L, concentration as given in row"}}, "note": "“Also recorded” adds a separate entry of the source. Where two headings read alike, the source gives them in different places.", "data": [{"molecule": "Clc1ccccc1C(c1ccccc1)(c1ccccc1)n1ccnc1", "note": "[clotrimazol, 1-[(2-chlorophenyl)diphenylmethyl]-1H-imidazole]", "values": [{"measurement": "Release (ATP) % of control (±S.D.)", "setting": "[1]", "result": "91.3 ± 5.0 % of control"}, {"measurement": "inhibition at 10 µM", "setting": "[2]; Homo sapiens, Platelet, read-out: inhibition of the prothrombinase activity of collagen and thrombin activated platelets", "result": "46 ± 13", "unit": "%"}, {"measurement": "Aggregation % of control (±S.D.)", "setting": "[3]", "result": "90.0 ± 2.8 % of control"}, {"measurement": "effect on aggregation or release, in words", "setting": "[3]; collagen plus thrombin induced, aggregation and ATP release together", "result": "Neither high extracellular [K^+], nor the presence of clotrimazol or charybdotoxin showed an appreciable effect"}, {"measurement": "inhibition of tetracaine-induced prothrombinase activity", "setting": "[4]", "result": "neither clotrimazol nor charybdotoxin could inhibit"}, {"measurement": "Δ[Ca2+]i", "setting": "[5]; 5 minutes after stimulation with collagen plus thrombin, clotrimazol 10 μmol/L, charybdotoxin 20 nmol/L, control 364±18", "result": "275 ± 10", "unit": "nmol/L"}, {"measurement": "reduction of the increase in [Ca2+]i versus absence of inhibitors", "setting": "[5]; clotrimazol 10 μmol/L", "result": 24, "unit": "%"}, {"measurement": "extent of annexin binding (mean fluorescence intensity) of the residual PS positive platelets", "setting": "[6]", "result": "remains at the same level"}, {"measurement": "number of PS-exposing (annexin-positive) platelets", "setting": "[6]", "result": "decreased"}, {"measurement": "inhibition of tetracaine-induced binding of FITC-conjugated annexin A5", "setting": "[7]", "result": "neither clotrimazol nor charybdotoxin could inhibit"}]}, {"molecule": "C=C[C@H]1CN2CC[C@H]1C[C@H]2[C@H](O)c1ccnc2ccc(OC)cc12.Cl", "note": "[quinine, quinine hydrochloride]", "values": [{"measurement": "Release (ATP) % of control (±S.D.)", "setting": "[1]; [9]", "result": "90.1 ± 4.1 % of control"}, {"measurement": "effect on the release, in words", "setting": "[1]; collagen plus thrombin induced", "result": "only a minor effect"}, {"measurement": "Aggregation % of control (±S.D.)", "setting": "[3]; [9]", "result": "40.0 ± 3.0 % of control"}, {"measurement": "inhibition of the aggregation", "setting": "[3]; collagen plus thrombin induced", "result": "approximately 60%"}]}, {"molecule": "CC(C)[C@@H]1NC(=O)[C@H](C)OC(=O)[C@@H](C(C)C)NC(=O)[C@@H](C(C)C)OC(=O)[C@H](C(C)C)NC(=O)[C@H](C)OC(=O)[C@@H](C(C)C)NC(=O)[C@@H](C(C)C)OC(=O)[C@H](C(C)C)NC(=O)[C@H](C)OC(=O)[C@@H](C(C)C)NC(=O)[C@@H](C(C)C)OC1=O", "note": "[valinomycin]", "values": [{"measurement": "procoagulant response (prothrombinase activity) of Scott syndrome platelets, in words", "setting": "[8]", "result": "significant increase; also recorded: partially restored"}, {"measurement": "reversal of the inhibition of the procoagulant response by high extracellular [K+]", "setting": "[2]; addition of valinomycin, data not shown", "result": "not reversed"}, {"measurement": "reversal of the inhibitory effect of quinine on procoagulant response", "setting": "[2]; valinomycin 3 μmol/L, HEPES buffer, FIGS. 2A and B", "result": "partially abolished"}, {"measurement": "reversal of the inhibition of procoagulant response caused by clotrimazol and charybdotoxin", "setting": "[2]; valinomycin 3 μmol/L, HEPES buffer, FIGS. 2A and B (prothrombinase and annexin)", "result": "completely reversed"}, {"measurement": "procoagulant response of platelets in the absence of a stimulus", "setting": "[2]; valinomycin itself", "result": "did not cause a procoagulant response"}, {"measurement": "Δ[Ca2+]i with valinomycin in clotrimazol-preincubated platelets", "setting": "[5]; clotrimazol 10 μmol/L plus valinomycin, 5 minutes after collagen plus thrombin", "result": "326 ± 34", "unit": "nmol/L"}, {"measurement": "reversal of the inhibition by clotrimazol and charybdotoxin in HEPES/Choline", "setting": "[6]; presence of valinomycin, HEPES/Choline buffer, annexin A5 binding, FIG. 4", "result": "virtually annihilated"}]}, {"molecule": "iberiotoxin (QFTDVDCSVSKECWSVCKDLFGVDRGKCMGKKCRCYQ; UniProt P24663 1-37, looked up)", "values": [{"measurement": "effect on collagen plus thrombin-induced procoagulant (prothrombinase) activity, in words", "setting": "[2]; iberiotoxin 200 nmol/L, apamin 500 nmol/L", "result": "without effect"}]}]}
